Data taken from patent US10273206B2 (ALLERGAN, INC., priority 2014, dated 2019).
Structures can show the parent of a compound that is named as a salt. Where two headings read alike, the source gives them in different places.

Experiments:
[1] = base (source of basic counter ion) used in salt screening, Table 1; cited from earlier work
[2] = Measured pKa of bimatoprost acid, used for the Henderson-Hasselbalch fit; assay type: physicochemical; conditions: measured pKa used to fit solubility vs. pH plot
[3] = pH-solubility determination (shake flask in aqueous media, HPLC quantitation); assay type: physicochemical; conditions: thermodynamic from solid
Procedure: The pH was checked, and adjusted if necessary, at intervals of 1, 5, 23, 28 and 47 hrs. An aliquot of sample was taken off at 24 hrs and the final pH was recorded. The suspension was then filtered through a glass fiber C filter. The filtrate was then diluted by an appropriate factor. This was repeated at 48 hours. Quantitation was by HPLC with reference to 6 standard solutions of concentrations between 0.3873-0.0008 mg/ml dissolved in 66:21:13 H2O:ACN:MeOH.

[4] = Physical stability on storage at controlled temperature/relative humidity; assay type: physicochemical
[5] = Dissolution rate compared with the free acid; assay type: physicochemical; conditions: compared with bimatoprost free acid
[6] = Gravimetric vapor sorption (GVS) analysis; assay type: physicochemical
Procedure: The salt was then crystallized from ethyl acetate as follows. The lyophilized solid sample in ethyl acetate was subjected to initial heat/cool cycles using an Anachem React-Array. The sample was then subjected to three heat/cool cycles by using the following procedure: heating to 50° C. at 5° C./min, holding at 50° C. for 30 minutes, followed by cooling to 0° C. at 0.1° C./min, holding at 0° C. for 1 hour under constant stirring at 500 rpm. The recovered material (crystalline form 1) was analyzed by XRPD (FIG. 6), ^1H NMR, thermal analysis, and gravimetric vapor sorption (GVS) analysis, as summarized in Table 2.
Without being bound by any particular theory, the significant uptake of moisture may be a result of the large specific surface area of the material. On desorption, the adsorbed water was rapidly lost with no equilibrium established. At the end of the gravimetric vapor sorption (GVS) cycle, at 40% RH, the overall sample mass increased by 5 wt %.

CCN(CC)CCO [2-diethylamino ethanol]
pKa [1]: 9.58

NC(=O)NCCC[C@H](N)C(=O)O [Citrulline]
pKa [1]: 7.00

OCCN1CCOCC1 [Hydroxyethyl-morpholine]
pKa [1]: 7.39

NCCN [Ethylenediamine]
pKa [1]: 10.09

O=C(O)CCC/C=C\C[C@@H]1[C@@H](/C=C/[C@@H](O)CCc2ccccc2)[C@H](O)C[C@@H]1O [bimatoprost acid, (Z)-7-[3,5-Dihydroxy-2-((E)-3-hydroxy-5-phenyl-pent-1-enyl)-cyclopentyl]-hept-5-enoic acid]
pKa [2]: 4.76

C[N+](C)(C)CCO [Choline]
pKa [1]: 11.00

O=C(O)CCC/C=C\C[C@@H]1[C@@H](/C=C/[C@@H](O)CCc2ccccc2)[C@H](O)C[C@@H]1O [tromethamine salt of (Z)-7-[3,5-Dihydroxy-2-((E)-3-hydroxy-5-phenyl-pent-1-enyl)-cyclopentyl]-hept-5-enoic acid]
solubility thermodynamic ([3]; 25 °C, aqueous buffer, at pH 6.8, read-out: solubility): ~250 mg/mL | solubility at 48 h ([3]; 25 °C, pH 2, aqueous buffer, pH 2 (solubility of the free acid), 25° C., FIG. 5, read-out: intrinsic solubility): 1.39 mg/mL | solubility at 48 h ([3]; 25 °C, pH 6.5, aqueous buffer, at pH 6.5, see FIG. 5, read-out: solubility): ≥ 250 mg/mL | solubility at 48 h ([3]; 25 °C, pH 6.5, aqueous buffer, pH above 6.5, 25° C., FIG. 5, read-out: solubility of the salt): > 250 mg/mL | solubility thermodynamic ([3]; pH 6.5, aqueous buffer, pH above 6.5, 25° C., FIG. 5, read-out: solubility of the salt): ≥ 250 mg/mL | physically stable for (time) ([4]; 25° C./60% relative humidity (RH), open container closure): > 3 months | physically stable for (time) ([4]; 40° C./75% RH, closed container closure): > 3 months | dissolution rate relative to the free acid [5]: faster dissolution rate than the free acid | GVS analysis result ([6]; 90% RH): 90% RH, no deliquescence, no hydrate | overall sample mass increase at the end of the GVS cycle ([6]; at 40% RH, end of GVS cycle): 5 wt % | XRPD re-analysis of the sample post GVS analysis (form change) ([6]; post GVS analysis, FIG. 3): no change in the crystalline Form 1 | moisture uptake behaviour on storage ([6]; stored at or above 80% RH): behaves hygroscopically, with significant moisture uptake observed

CCNC[C@H](O)[C@@H](O)[C@H](O)[C@H](O)CO [N-ethyl-glucamine]
pKa [1]: 8.03
